From patent publication US12421269B2, “SGLT2/DPP4 inhibitor and application thereof” (CGeneTech (Suzhou, China) CO., Ltd., priority 2019, dated 2025) come the findings set out here.

The test system of one assay is SD Rat. As to the kind of experiment: Oral glucose tolerance (OGTT) in rats. The conditions noted are these: male SD rats, single gavage dose, Canagliflozin 3 mg/kg, test compound 10 mg/kg. It counts as in vivo. Here is the method: The animals will be acclimatized in the animal room for 1 week after arrival at the facility.
The animals are fasted for 16 hours in the metabolic cage and given the drug or solvent (5 mL/kg) according to the table above, followed immediately by 50% glucose solution (2 g/kg, 4 mL/kg).
After 1 hour of glucose administration, the animals resumed feeding, and blood samples were collected at 0 min, 20 min, 40 min, 60 min, 90 min and 120 min for blood glucose measurement; urine at 0 to 24 hours was used for urinary glucose (mg/200 g) and urine volume test, respectively.
All values were expressed as mean values. Statistical analysis was performed using Graphpad Prism 6 single factor analysis of variance Tukey's multiple comparison test. The p-value less than 0.05 was considered statistically significant.

In another assay the target is T1, Human-SGLT1 (Homo sapiens, UniProt P13866).
T1 sequence (P13866 1-664): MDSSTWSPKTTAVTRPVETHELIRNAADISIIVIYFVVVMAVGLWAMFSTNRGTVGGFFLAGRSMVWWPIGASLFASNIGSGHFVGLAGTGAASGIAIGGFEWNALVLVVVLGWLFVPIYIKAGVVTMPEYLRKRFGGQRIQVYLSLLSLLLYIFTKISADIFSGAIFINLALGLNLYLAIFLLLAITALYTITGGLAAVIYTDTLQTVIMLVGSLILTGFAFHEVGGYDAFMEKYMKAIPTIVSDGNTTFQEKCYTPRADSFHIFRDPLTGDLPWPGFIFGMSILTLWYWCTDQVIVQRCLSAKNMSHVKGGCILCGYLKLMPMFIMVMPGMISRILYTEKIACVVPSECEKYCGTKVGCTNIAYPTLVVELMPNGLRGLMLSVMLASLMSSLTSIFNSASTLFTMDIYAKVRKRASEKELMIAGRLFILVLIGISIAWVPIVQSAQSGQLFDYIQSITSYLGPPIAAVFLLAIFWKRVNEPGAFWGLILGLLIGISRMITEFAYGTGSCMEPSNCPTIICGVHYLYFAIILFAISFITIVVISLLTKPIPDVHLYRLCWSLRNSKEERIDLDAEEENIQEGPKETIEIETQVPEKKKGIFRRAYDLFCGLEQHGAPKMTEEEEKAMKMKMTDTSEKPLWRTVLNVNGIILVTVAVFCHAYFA
The assay is described as follows: SGLT1 glucose transport assay ([14C]-labeled glucose uptake). It counts as cell-based. The conditions noted are these: cells stably expressing Human-SGLT1, 37° C., 2 hours. The protocol: To test the effect of compounds on the glucose transport activity of SGLT1 transporters by measuring the amount of [^14C]-labeled glucose entering highly expressed Human-SGLT1 cells.
The cells stably expressing Human-SGLT1 used for the experiments were constructed by WuXi AppTec Shanghai. The SGLT1 cells were plated in Cytostar-T (PerkinElmer) 96-well cell culture plates and cultured overnight at 5% CO2, 37° C.
Experimental buffer: 10 mM 4-hydroxyethylpiperazine ethanesulfonic acid (HEPES), 1.2 mM magnesium chloride (MgCl2), 4.7 mM potassium chloride (KCl), 2.2 mM calcium chloride (CaCl2) and 120 mM sodium chloride (NaCl).
The compounds were diluted with 100% dimethyl sulfoxide (DMSO) at a starting concentration of 1 mM, 8 points of 5-fold serial gradient dilution was made.
3 μM [^14C]-labeled methyl α-D-glucopyranoside (Methyl a-D-glucopyranosid) was prepared with experimental buffer.
Cells were treated with 49 μL of experimental buffer, 1 μL of gradient-diluted compound and 50 μL of 3 μM [^14C]-isotope-labeled glucose solution at 37° C. for 2 hours.
Readings were taken with an isotope detector (Micro beta Reader).
The data were calculated by GraphPad Prism 5.0 software using the formula: log(inhibitor) vs. response—Variable slope to obtain the IC50 values of the tested compounds, and the experimental results are shown in Table 5.

SMILES strings stand for the structures.

As usually defined, the IC50 is the concentration needed to halve the response being measured. The low end stands for inhibition by little substance, the high end for a need for much substance. For the molecule `CS[C@H]1O[C@@H](c2ccc(F)c(Cc3ccc(O[C@@H]4CCN([C@H]5CO[C@H](c6cc(F)ccc6F)[C@@H](N)C5)C4)cc3)c2)[C@H](O)[C@@H](O)[C@@H]1O` [WX001], in the assay with SD Rat (glucose 2 g/kg), the OGTT blood glucose levels AUC0-2hr was found to be 869 mmol/L/min. In the assay on SD Rat (urine 0 to 24 hours), this molecule yielded a Urinary glucose level of 0.7 mg/200 gBW and a Urine volume of 10.6 mL/200 gBW. In addition, at Human-SGLT1, the 50% inhibitory concentration (IC50) came out at 1280 nM.

In the case of `CS[C@H]1O[C@@H](c2cc(Cc3ccc(O[C@@H]4CCN([C@H]5CO[C@H](c6cc(F)ccc6F)[C@@H](N)C5)C4)cc3)c(F)cc2F)[C@H](O)[C@@H](O)[C@@H]1O` [WX006], the IC50 against Human-SGLT1 is 298 nM.
